Counter-ions that a name gives are not always drawn.
Experiments:
[1] = test system: blood platelet aggregation; experiment: Collagen-induced blood platelet aggregation, rabbit plasma (aggregometer method of BORN); format: cell-based; conditions: Oryctolagus cuniculus, 1 min, 37° C., 1 minute, maximum aggregation velocity, read-out: EC 50, collagen-induced blood platelet aggregation, rabbit plasma
Method: (§1) The maximum aggregation velocity was taken as the test parameter and the effective concentration (EC50) was ascertained from dosage-activity curves. Rabbit plasma was obtained by centrifugation from arterial blood treated with citrate (9 mM). 1 ml. of plasma was treated with 10 μl of test solution and the mixture was incubated at 37° C. for 1 minute, whereupon 8 μl of collagen-fibril suspension or 10 μl. of adenosine diphosphate (ADP) in 10^-4 N sodium chloride solution were added. Plasma incubated with dimethylsulfoxide served as the control. |Collagen- and ADP-induced blood platelet aggregation

[2] = test system: blood platelet aggregation; experiment: ADP-induced blood platelet aggregation, rabbit plasma (aggregometer method of BORN); format: cell-based; conditions: Oryctolagus cuniculus, 1 min, 37° C., 1 minute, maximum aggregation velocity, read-out: EC 50, ADP-induced blood platelet aggregation, rabbit plasma
Method: as §1

[3] = test system: blood platelet aggregation; experiment: Collagen-induced blood platelet aggregation, human plasma (aggregometer method of BORN); format: cell-based; conditions: 10 min, 37° C., maximum aggregation velocity, read-out: EC 50, collagen-induced blood platelet aggregation, human plasma
Method: The maximum aggregation velocity was taken as the test parameter and the effective concentration (EC50) was ascertained from dosage-activity curves. Human plasma was obtained by centifugation from venous blood treated with citrate (10.6 mM). 0.18 ml. of plasma was treated with 10 μl of an aqueous suspension of the test substance and the mixture was incubated at 37° C. for 10 minutes, whereupon the aggregation was initiated by the addition of 10 μl of collagen-fibril suspension. |Collagen- and ADP-induced blood platelet aggregation

conscious sheepdogs = experiment: Positive inotropic activity and heart frequency after oral administration to conscious sheepdogs; format: in vivo
Method: The positive inotropic activity was measured after the oral administration of a test substance to conscious sheepdogs. For this purpose, the animals are provided with an implanted pressure-telemetry system, so that the pressure receiver is fixed in the left ventricle. The left ventricular pressure is sent from the animal via the implanted radio transmitter and received via a suitable antenna and receiver system, demodulated and amplified. By differentiation of the ascending side of the left ventricular pressure (LVP), the maximum pressure increase rate (dLVP/dtmax) which represents the contractility parameter is calculated. Simultaneously, the heart frequency is recorded via a cardiotachograph. Under the heading inotropy in Table II, the percentage variation (Δ%) of dLVP/dtmax and the duration of activity in minutes (min) are indicated. Under the heading tachycardia in Table II, the percentage variations of the heart frequency (Δ%) after administration of the test substance and the duration of activity in minutes (min) are indicated.

Cc1cccc2c1CN1C(=N2)NC(=O)[C@H]1C.Cl [D-1,5-dihydro-3,6-dimethylimidazo[2,1-b]-quinazolin-2(3H)-one hydrochloride]
EC50 [1]: 0.19 µM | EC50 [2]: 2.2 µM | EC50 [3]: 2.3 µM | Heart frequency Min (duration of activity; tachycardia) (conscious sheepdogs; 10 mg/kg): 480 min | Heart frequency Δ % (percentage variation; tachycardia) (conscious sheepdogs; 10 mg/kg): 63% | Inotropy Min (duration of activity) (conscious sheepdogs; 10 mg/kg): 440 min | Inotropy Δ % (percentage variation of dLVP/dtmax) (conscious sheepdogs; 10 mg/kg): 82%

Cc1ccc2c(c1)CN1C(=N2)NC(=O)[C@H]1C [D-1,5-dihydro-3,7-dimethylimidazo[2,1-b]-quinazolin-2(3H)-one hydrochloride]
EC50 [1]: 3.1 µM | EC50 [2]: 19 µM | EC50 [3]: 3.4 µM

Cc1cccc2c1N=C1NC(=O)[C@@H](C)N1C2 [D-1,5-dihydro-3,9-dimethylimidazo[2,1-b]-quinazolin-2(3H)-one hydrochloride]
EC50 [1]: 3 µM | EC50 [2]: 32 µM | EC50 [3]: 26 µM

C[C@@H]1C(=O)NC2=Nc3cccc(Cl)c3CN21.Cl [D-6-chloro-1,5-dihydro-3-methyl-imidazo[2,1-b]quinazolin-2(3H)-one hydrochloride]
Heart frequency Min (duration of activity; tachycardia) (conscious sheepdogs; 5 mg/kg): 115 min | Heart frequency Δ % (percentage variation; tachycardia) (conscious sheepdogs; 5 mg/kg): 28% | Inotropy Min (duration of activity) (conscious sheepdogs; 5 mg/kg): 145 min | Inotropy Δ % (percentage variation of dLVP/dtmax) (conscious sheepdogs; 5 mg/kg): 93%

Cc1ccc2c(c1)CN1C(=N2)NC(=O)[C@@H]1C [L-1,5-Dihydro-3,7-dimethyl-imidazo[2,1-b]quinazolin-2(3H)-one hydrochloride]
EC50 [1]: 22 µM | EC50 [2]: 77 µM | EC50 [3]: 33 µM

Cc1cccc2c1CN1C(=N2)NC(=O)[C@@H]1C [L-1,5-dihydro-3,6-dimethylimidazo[2,1-b]-quinazoline-2(3H)-one hydrochloride]
EC50 [1]: 0.93 µM | EC50 [2]: 11 µM | EC50 [3]: 6.2 µM

Cc1cccc2c1N=C1NC(=O)[C@H](C)N1C2 [L-1,5-dihydro-3,9-dimethylimidazo[2,1-b]quinazolin-2(3H)-one]
EC50 [1]: 18 µM | EC50 [2]: 60 µM | EC50 [3]: 49 µM | Heart frequency Min (duration of activity; tachycardia) (conscious sheepdogs; 10 mg/kg): 100 min | Heart frequency Δ % (percentage variation; tachycardia) (conscious sheepdogs; 10 mg/kg): 16% | Inotropy Min (duration of activity) (conscious sheepdogs; 10 mg/kg): 120 min | Inotropy Δ % (percentage variation of dLVP/dtmax) (conscious sheepdogs; 10 mg/kg): 43%

Cc1cccc2c1CN1C(=N2)NC(=O)[C@@H]1CO [L-1,5-dihydro-3-hydroxymethyl-6-methyl-imidazo[2,1-b]quinazoline-2(3H)-onehydrochloride]
EC50 [3]: 14 µM

From patent US4256748A, “Imidazo[2,1-b]quinazolin-2(3H)-ones and pharmaceutical compositions for treatment and prophylaxis of cardiac insufficiency and cardiac failure” (Hoffmann-La Roche Inc., priority 1977, dated 1981)
